# Experimental data: patent US12115152B2, “Pan-RAF kinase inhibitor and use thereof” (HEFEI INSTITUTES OF PHYSICAL SCIENCE, CHINESE ACADEMY OF …, priority 2019, dated 2024)
# How the values were obtained:
# [1] = test system: colorectal cancer cell COLO205 (expressing BRAF-V600E mutant kinase); assay: Effect on proliferation of cancer cells, Cell Titer-Glo, 72 hours; assay type: cell-based; settings: Homo sapiens, COLO 205
# Protocol: (§1) The compounds of the present invention were tested for their effect on growth of cancer cells (Table 2), to further evaluate the compounds herein for their inhibitory effect on proliferation of cancer cells and their selectivity in inhibiting proliferation of cancer cells.
# (§2) The cells were incubated for 72 hours. The number of viable cells was detected with a Cell Titer-Glo (Promega, USA) Cell Viability Assay Kit by quantifying the ATP in viable cells. The values of GI50 (unit) of the compounds of the present invention against each of the test cells were determined.
# [2] = test system: melanoma cell A375 (expressing BRAF-V600E mutant kinase); assay: as above; assay type: cell-based; settings: Homo sapiens, A-375
# Protocol: as §1, §2
# [3] = test system: mouse BaF3-FL-BRAF-V600E (stably expressing full-length BRAF-V600E mutant kinase); assay: as above; assay type: cell-based
# Protocol: as §1, §2
# [4] = Effect on proliferation of cells, Cell Titer-Glo, 72 hours; assay type: cell-based; settings: Mus musculus, BaF3 cells
# Protocol: The compounds of the present invention were tested for their effect on growth of cancer cells (Table 2), to further evaluate the compounds herein for their inhibitory effect on proliferation of cancer cells and their selectivity in inhibiting proliferation of cancer cells. […]
# as §2, with “In the example, solutions of the test compound in DMSO at different concentrations (0.000508 μM, 0.00152 μM, 0.00457 μM, 0.0137 μM, 0.0411 μM, 0.123 μM, 0.370 μM, 1.11 μM, 3.33 μM, 10 μM) was added to the above cells respectively. The cells” for “The cells”
# [5] = test system: Calu-6, A375, BxPC3, HCT116, COLO205 cell transplanted tumors; assay: Drug efficacy in mouse transplanted tumor models; assay type: in vivo; settings: mouse transplanted tumor models of cancer cells expressing KRAS, BRAF or NRAS mutations, oral daily dosing
SMILES,GI50 [1] [nM],GI50 [2] [nM],GI50 [3] [nM],GI50 [4] [nM],tumor inhibitory effect [5]
"Cc1ccc(NC(=O)c2cccc(C(F)(F)F)c2)cc1-n1cc(-c2cccnc2)cn1 [compound 1, 3-trifluoromethyl-N-(4-methyl-3-(4-(pyrid-3-yl)-1H-pyrazol-1-yl)phenyl)benzamide, reference compound]",150,85,17,3300,–
"Cc1ccc(NC(=O)c2cccc(C(F)(F)F)c2)cc1-n1cc(-c2cncc(N3CCOCC3)c2)cn1 [Example 16, N-(4-methyl-3-(4-(5-morpholinopyrid-3-yl)-1H-pyrazol-1-yl)phenyl)-3-(trifluoromethyl)benzamide]",–,–,–,> 10000,inhibitory effect superior to the control compounds
